Results from patent publication US20250230193A1, “CYCLIC COMPOUND HAVING SELECTIVE KRAS INHIBITORY EFFECT ON HRAS AND NRAS” (CHUGAI SEIYAKU KABUSHIKI KAISHA, priority 2022, published 2025).

Experiments:
[1] = target: GDP-bound NRAS wild-type protein (Homo sapiens, UniProt P01111); assay: Binding to NRAS by surface plasmon resonance (SPR), Single Cycle Kinetics; details: KD ratio NRAS/KRAS, class symbols
[2] = target: GDP-bound HRAS wild-type protein (Homo sapiens, UniProt P01112); assay: Binding to HRAS by surface plasmon resonance (SPR), Single Cycle Kinetics; details: KD ratio HRAS/KRAS, class symbols
Chain of GDP-bound HRAS wild-type protein (P01112 whole entry): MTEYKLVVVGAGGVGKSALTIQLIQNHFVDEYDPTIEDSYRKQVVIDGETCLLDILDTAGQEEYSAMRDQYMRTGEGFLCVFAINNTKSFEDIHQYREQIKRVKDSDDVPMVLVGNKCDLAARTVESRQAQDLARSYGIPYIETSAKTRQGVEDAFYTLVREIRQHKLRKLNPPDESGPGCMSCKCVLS

Chain of GDP-bound NRAS wild-type protein (P01111 whole entry): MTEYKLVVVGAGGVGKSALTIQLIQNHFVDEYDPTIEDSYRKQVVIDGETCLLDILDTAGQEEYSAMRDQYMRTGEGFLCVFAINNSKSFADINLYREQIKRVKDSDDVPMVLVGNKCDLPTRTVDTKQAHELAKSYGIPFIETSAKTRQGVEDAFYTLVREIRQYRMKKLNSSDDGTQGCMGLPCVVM

Row | Compound | NRAS/KRAS (ratio of KD value with respect to GDP-bound NRAS wild-type protein to KD value with respect to KRAS) [1] | HRAS/KRAS (ratio of KD value with respect to GDP-bound HRAS wild-type protein to KD value with respect to KRAS) [2]
1 | CCO[C@@H]1C[C@H]2C(=O)NC3(CC(C)(C)C3)C(=O)N(C)[C@@H](C3CCCC3)C(=O)N(C)[C@H](C(=O)N3CCCC3)CC(=O)N(C)[C@H]3CCC/C=C/c4ccc(cc4)C[C@@H](C(=O)N(C)CC(=O)N[C@@H](CCc4cc(F)c(C(F)(F)F)c(F)c4)C(=O)N2C1)N1CC/C=C\C[C@@H](C1=O)N(C)C(=O)CN(C)C(=O)[C@H]([C@@H](C)CC)NC3=O [PP2574, (1S,7S,11R,13S,19S,22S,26S,29S,35S,37Z,47E)-19-cyclopentyl-7-[2-[3,5-difluoro-4-(trifluoromethyl)phenyl]ethyl]-11-ethoxy-3,3′,3′,18,21,25,31,34-octamethyl-29-[(1S)-1-methylpropyl]-22-(pyrrolidine-1-carbonyl)spiro[3,6,9,15,18,21,25,28,31,34,41-undecazapentacyclo[24.15.10.2^43,46.1^35,41.0^9,13]tetrapentaconta-37,43(53),44,46(52),47-pentaene-16,1′-cyclobutane]-2,5,8,14,17,20,24,27,30,33,54-undecone] | A (a compound having 10 or more and less than 20 is denoted as A) | A (a compound having 10 or more and less than 20 is denoted as A)
2 | CCO[C@@H]1C[C@H]2C(=O)NC3(CC(C)(C)C3)C(=O)N(C)[C@@H](C(CC)CC)C(=O)N(C)[C@H](C(=O)N(C)C)CC(=O)N(C)[C@H]3CCC/C=C/c4ccc(cc4)C[C@@H](C(=O)N(C)CC(=O)N[C@@H](CCc4cc(F)c(C(F)(F)F)c(F)c4)C(=O)N2C1)N1CC/C=C\C[C@@H](C1=O)N(C)C(=O)CN(C)C(=O)[C@H]([C@@H](C)CC)NC3=O [PP2575] | A (a compound having 10 or more and less than 20 is denoted as A) | A (a compound having 10 or more and less than 20 is denoted as A)
3 | CCO[C@@H]1C[C@H]2C(=O)NC3(CC(C)(C)C3)C(=O)N(C)[C@@H](C(CC)CC)C(=O)N(C)[C@H](C(=O)N3CCCC3)CC(=O)N(C)[C@H]3CCC/C=C/c4ccc(cc4)C[C@@H](C(=O)N(C)CC(=O)N[C@@H](CCc4cc(F)c(C(F)(F)F)c(F)c4)C(=O)N2C1)N1CC/C=C\C[C@@H](C1=O)N(C)C(=O)CN(C)C(=O)[C@H]([C@@H](C)CC)NC3=O [PP2576] | A (a compound having 10 or more and less than 20 is denoted as A) | A (a compound having 10 or more and less than 20 is denoted as A)
4 | CCO[C@@H]1C[C@H]2C(=O)NC3(CC(C)(C)C3)C(=O)N(C)[C@@H](C3CCCC3)C(=O)N(C)[C@H](C(=O)N(C)CC)CC(=O)N(C)[C@H]3CCC/C=C/c4ccc(cc4)C[C@@H](C(=O)N(C)CC(=O)N[C@@H](CCc4ccc(Cl)c(Cl)c4)C(=O)N2C1)N1CC/C=C\C[C@@H](C1=O)N(C)C(=O)CN(C)C(=O)[C@H]([C@@H](C)CC)NC3=O [PP2577] | A (a compound having 10 or more and less than 20 is denoted as A) | A (a compound having 10 or more and less than 20 is denoted as A)
5 | CCO[C@@H]1C[C@H]2C(=O)NC3(CC(C)(C)C3)C(=O)N(C)[C@@H](C3CCCC3)C(=O)N(C)[C@H](C(=O)N3CCCCC3)CC(=O)N(C)[C@H]3CCC/C=C/c4ccc(cc4)C[C@@H](C(=O)N(C)CC(=O)N[C@@H](CCc4ccc(Cl)c(Cl)c4)C(=O)N2C1)N1CC/C=C\C[C@@H](C1=O)N(C)C(=O)CN(C)C(=O)[C@H]([C@@H](C)CC)NC3=O [PP2578] | AA (a compound having 20 or more is denoted as AA) | A (a compound having 10 or more and less than 20 is denoted as A)
6 | CCO[C@@H]1C[C@H]2C(=O)NC3(CC(C)(C)C3)C(=O)N(C)[C@@H](C(CC)CC)C(=O)N(C)[C@H](C(=O)N(C)C)CC(=O)N(C)[C@H]3CCC/C=C/c4ccc(cc4)C[C@@H](C(=O)N(C)CC(=O)N[C@@H](CCc4ccc(Cl)c(Cl)c4)C(=O)N2C1)N1CC/C=C\C[C@@H](C1=O)N(C)C(=O)CN(C)C(=O)[C@H]([C@@H](C)CC)NC3=O [PP2580] | AA (a compound having 20 or more is denoted as AA) | A (a compound having 10 or more and less than 20 is denoted as A)
7 | CCO[C@@H]1C[C@H]2C(=O)NC3(CC(C)(C)C3)C(=O)N(C)[C@@H](C(CC)CC)C(=O)N(C)[C@H](C(=O)N3CCCC3)CC(=O)N(C)[C@H]3CCC/C=C/c4ccc(cc4)C[C@@H](C(=O)N(C)CC(=O)N[C@@H](CCc4ccc(Cl)c(Cl)c4)C(=O)N2C1)N1CC/C=C\C[C@@H](C1=O)N(C)C(=O)CN(C)C(=O)[C@H]([C@@H](C)CC)NC3=O [PP2581] | AA (a compound having 20 or more is denoted as AA) | A (a compound having 10 or more and less than 20 is denoted as A)
8 | CCO[C@@H]1C[C@H]2C(=O)NC3(CC(C)(C)C3)C(=O)N(C)[C@@H](C3CCCC3)C(=O)N(C)[C@H](C(=O)N3CCCC3)CC(=O)N(C)[C@H]3CCC/C=C/c4ccc(cc4)C[C@@H](C(=O)N(C)CC(=O)N[C@@H](CCc4cc(F)c(C(F)(F)F)c(F)c4)C(=O)N2C1)N1CC/C=C\C[C@@H](C1=O)N(C)C(=O)CN(C1CC1)C(=O)[C@H]([C@@H](C)CC)NC3=O [PP2583] | A (a compound having 10 or more and less than 20 is denoted as A) | A (a compound having 10 or more and less than 20 is denoted as A)
9 | CCO[C@@H]1C[C@H]2C(=O)NC3(CC(C)(C)C3)C(=O)N(C)[C@@H](C(CC)CC)C(=O)N(C)[C@H](C(=O)N(C)C)CC(=O)N(C)[C@H]3CC/C=C/c4ccc(cc4)C[C@@H](C(=O)N(C)CC(=O)N[C@@H](CCc4cc(F)c(C(F)(F)F)c(F)c4)C(=O)N2C1)N1CC/C=C\C[C@@H](C1=O)N(C)C(=O)CN(C)C(=O)[C@H]([C@@H](C)CC)NC3=O [PP2586] | A (a compound having 10 or more and less than 20 is denoted as A) | B (a compound having 3 or more and less than 10 is denoted as B)
10 | CCO[C@@H]1C[C@H]2C(=O)NC3(CC(C)(C)C3)C(=O)N(C)[C@@H](C(CC)CC)C(=O)N(C)[C@H](C(=O)N(C)C)CC(=O)N(C)[C@H]3CC/C=C/c4ccc(cc4)C[C@@H](C(=O)N(C)CC(=O)N[C@@H](CCc4ccc(Cl)c(Cl)c4)C(=O)N2C1)N1CC/C=C\C[C@@H](C1=O)N(C)C(=O)CN(C)C(=O)[C@H]([C@@H](C)CC)NC3=O [PP2589] | AA (a compound having 20 or more is denoted as AA) | A (a compound having 10 or more and less than 20 is denoted as A)
11 | CCO[C@@H]1C[C@H]2C(=O)NC3(CC(C)(C)C3)C(=O)N(C)[C@@H](C3CCCC3)C(=O)N(C)[C@H](C(=O)N(C)CC)CC(=O)N(C)[C@H]3CCCC/C=C/c4ccc(cc4)C[C@@H](C(=O)N(C)CC(=O)N[C@@H](CCc4ccc(Cl)c(Cl)c4)C(=O)N2C1)N1CC/C=C\C[C@@H](C1=O)N(C)C(=O)CN(C)C(=O)[C@H]([C@@H](C)CC)NC3=O [PP2592] | A (a compound having 10 or more and less than 20 is denoted as A) | A (a compound having 10 or more and less than 20 is denoted as A)
12 | CCO[C@@H]1C[C@H]2C(=O)NC3(CC(C)(C)C3)C(=O)N(C)[C@@H](C3CCCC3)C(=O)N(C)[C@H](C(=O)N3CCCC3)CC(=O)N(C)[C@H]3CCCC/C=C/c4ccc(cc4)C[C@@H](C(=O)N(C)CC(=O)N[C@@H](CCc4ccc(Cl)c(Cl)c4)C(=O)N2C1)N1CC/C=C\C[C@@H](C1=O)N(C)C(=O)CN(C)C(=O)[C@H]([C@@H](C)CC)NC3=O [PP2593] | A (a compound having 10 or more and less than 20 is denoted as A) | A (a compound having 10 or more and less than 20 is denoted as A)
13 | CCC(CC)[C@H]1C(=O)N(C)[C@H](C(=O)N(C)C)CC(=O)N(C)[C@H]2CCC/C=C/c3ccc(cc3)C[C@@H](C(=O)N(C)CC(=O)N[C@@H](CCc3cc(F)c(C(F)(F)F)c(F)c3)C(=O)N3C[C@H](OC(C)C)C[C@H]3C(=O)NC3(CC(C)(C)C3)C(=O)N1C)N1CC/C=C\C[C@@H](C1=O)N(C)C(=O)CN(C)C(=O)[C@H]([C@@H](C)CC)NC2=O [PP2594] | A (a compound having 10 or more and less than 20 is denoted as A) | A (a compound having 10 or more and less than 20 is denoted as A)
14 | CC[C@H](C)[C@@H]1NC(=O)[C@@H]2CCC/C=C/c3ccc(cc3)C[C@@H](C(=O)N(C)CC(=O)N[C@@H](CCc3ccc(Cl)c(Cl)c3)C(=O)N3C[C@H](OC(C)C)C[C@H]3C(=O)NC3(CC(C)(C)C3)C(=O)N(C)[C@@H](C3CCCC3)C(=O)N(C)[C@H](C(=O)N(C)CC)CC(=O)N2C)N2CC/C=C\C[C@@H](C2=O)N(C)C(=O)CN(C)C1=O [PP2595] | A (a compound having 10 or more and less than 20 is denoted as A) | B (a compound having 3 or more and less than 10 is denoted as B)
